This passage reports T/C results from PubChem BioAssay AID308 (DTP/NCI, 2004).

The test system of the experiment is BDF1 mice, L1210 6-MP/6-TG resistant leukemia ip, survival T/C. Nature of the experiment: NCI In Vivo Anticancer Drug Screen. Data for tumor model L1210 Leukemia resistant to 6-MP and 6-Thioguanine; NSC 755, NSC 752 (intraperitoneal) in B6D2F1 (BDF1) mice. The note with it: endpoint: mean survival time, higher = longer survival. The protocol:
The antitumor activity of compounds was measured in mice bearing transplantable tumors. Survival or tumor size were measured and the results are expressed as the measurement made in the treated group (T) divided by the measurement made in the vehicle treated control group (C). The tumor model used in this assay is L1210 Leukemia resistant to 6-MP and 6-Thioguanine; NSC 755, NSC 752 (intraperitoneal) in B6D2F1 (BDF1) mice

Setting [1] is: dose: 100.0 mg/kg/injection, schedule: Q01DX Z (sc), vehicle: steriod suspending solution.
The mark [2] stands for this setting: dose: 1.87 mg/kg/injection, schedule: Q01DX Z (ip), vehicle: carboxymethylcellulose (CMC).
Setting [3] is: dose: 3.75 mg/kg/injection, schedule: Q01DX Z (ip), vehicle: carboxymethylcellulose (CMC).
[4] abbreviates: dose: 7.5 mg/kg/injection, schedule: Q01DX Z (ip), vehicle: carboxymethylcellulose (CMC).
[5] abbreviates: dose: 7.5 mg/kg/injection, schedule: Q01DX Z (ip), vehicle: saline.
[6] abbreviates: dose: 15.0 mg/kg/injection, schedule: Q01DX Z (ip), vehicle: saline.
Where [7] appears, read: dose: 30.0 mg/kg/injection, schedule: Q01DX Z (ip), vehicle: saline.
[8] abbreviates: dose: 4.0 mg/kg/injection, schedule: Q01DX Z (ip), vehicle: carboxymethylcellulose (CMC).

Structures are written as SMILES. “And” between values parts separate entries of the source, which are not always exact repeats. Equal entries are not always repeated. Inconclusive results and toxic doses are left out.

For the molecule `O=c1cn[nH]c(=O)[nH]1`, the T/C is 109 % of control (dose: 125.0 mg/kg/injection, schedule: Q01DX Z (ip), vehicle: carboxymethylcellulose (CMC)); 115 % of control (dose: 250.0 mg/kg/injection, schedule: Q01DX Z (ip), vehicle: carboxymethylcellulose (CMC)); 121 % of control (dose: 375.0 mg/kg/injection, schedule: Q01DX Z (ip), vehicle: carboxymethylcellulose (CMC)); 121 % of control (dose: 500.0 mg/kg/injection, schedule: Q01DX Z (ip), vehicle: carboxymethylcellulose (CMC)).

Turning to `C(=C\c1ccccc1)/CSc1ncnc2nc[nH]c12`, the T/C runs as follows: (dose: 62.0 mg/kg/injection, schedule: Q01DX015 (ip), vehicle: carboxymethylcellulose (CMC)) 98 % of control; (dose: 125.0 mg/kg/injection, schedule: Q01DX015 (ip), vehicle: carboxymethylcellulose (CMC)) 96 % of control; (dose: 250.0 mg/kg/injection, schedule: Q01DX015 (ip), vehicle: carboxymethylcellulose (CMC)) 91 % of control; (dose: 500.0 mg/kg/injection, schedule: Q01DX015 (ip), vehicle: carboxymethylcellulose (CMC)) 90 % of control; (dose: 1000.0 mg/kg/injection, schedule: Q01DX015 (ip), vehicle: carboxymethylcellulose (CMC)) 90 % of control.

As for `CCCCCCCSc1ncnc2c1ncn2CO`, the T/C (dose: 150.0 mg/kg/injection, schedule: Q01DX009 (ip), vehicle: other) is 96 % of control; the T/C (dose: 200.0 mg/kg/injection, schedule: Q01DX009 (ip), vehicle: other) is 95 % of control; the T/C (dose: 300.0 mg/kg/injection, schedule: Q01DX009 (ip), vehicle: other) was 100 % of control; the T/C (dose: 400.0 mg/kg/injection, schedule: Q01DX009 (ip), vehicle: other) was 86 % of control.

Turning to `CCC1(Sc2ncnc3nc[nH]c23)C(=O)NC(=O)NC1=O`, the T/C reads like this: (dose: 6.25 mg/kg/injection, schedule: Q01DX010 (ip), vehicle: alkali diluted with saline) 104 % of control; (dose: 12.5 mg/kg/injection, schedule: Q01DX010 (ip), vehicle: alkali diluted with saline) 96 % of control; (dose: 25.0 mg/kg/injection, schedule: Q01DX010 (ip), vehicle: alkali diluted with saline) 107 % of control; (dose: 50.0 mg/kg/injection, schedule: Q01DX010 (ip), vehicle: alkali diluted with saline) 102 % of control; (dose: 100.0 mg/kg/injection, schedule: Q01DX010 (ip), vehicle: alkali diluted with saline) 104 % of control; (dose: 200.0 mg/kg/injection, schedule: Q01DX010 (ip), vehicle: alkali diluted with saline) 107 % of control.

Take `Nc1ccc(C(=O)NO)cc1`: the T/C is 102 % of control (dose: 112.5 mg/kg/injection, schedule: Q01DX015 (ip), vehicle: carboxymethylcellulose (CMC)); 91 % of control (dose: 225.0 mg/kg/injection, schedule: Q01DX015 (ip), vehicle: carboxymethylcellulose (CMC)); 90 % of control (dose: 450.0 mg/kg/injection, schedule: Q01DX015 (ip), vehicle: carboxymethylcellulose (CMC)); 97 % of control (dose: 900.0 mg/kg/injection, schedule: Q01DX015 (ip), vehicle: carboxymethylcellulose (CMC)).

On to `CCOC(=O)Sc1ncnc2nc[nH]c12`, for which the T/C is, setting by setting: (dose: 14.0 mg/kg/injection, schedule: Q01DX Z (ip), vehicle: saline) 95 % of control; (dose: 28.0 mg/kg/injection, schedule: Q01DX Z (ip), vehicle: saline) 95 % of control; (dose: 56.0 mg/kg/injection, schedule: Q01DX Z (ip), vehicle: saline) 90 % of control.

Consider `C[C@]12C=CC(=O)C=C1CC[C@@H]1[C@@H]2C(=O)C[C@@]2(C)[C@H]1CC[C@]2(O)C(=O)CO`, for which the T/C (dose: 50.0 mg/kg/injection, schedule: Q01DX Z (sc), vehicle: steriod suspending solution) was 105 % of control; the T/C under setting [1] was 100 % of control; the T/C (dose: 150.0 mg/kg/injection, schedule: Q01DX Z (sc), vehicle: steriod suspending solution) was 93 % of control; the T/C (dose: 200.0 mg/kg/injection, schedule: Q01DX Z (sc), vehicle: steriod suspending solution) is 96 % of control.

Regarding `O=C(Nc1ccc(C2=NCCCN2)cc1)c1ccc(C(=O)Nc2ccc(C3=NCCCN3)cc2)cc1`, the T/C (dose: 0.46 mg/kg/injection, schedule: Q01DX Z (ip), vehicle: carboxymethylcellulose (CMC)) was 106 % of control; the T/C under setting [2] is 178 % of control; the T/C under setting [3] was 154 % of control and 195 % of control; the T/C under setting [4] was 155 % of control; the T/C (dose: 15.0 mg/kg/injection, schedule: Q01DX Z (ip), vehicle: carboxymethylcellulose (CMC)) was 113 % of control.

For `CSc1ncc(Br)c(Sc2nc(N)nc3nc[nH]c23)n1`, the T/C (dose: 3.12 mg/kg/injection, schedule: Q01DX Z (ip), vehicle: carboxymethylcellulose (CMC)) is 100 % of control; the T/C (dose: 6.25 mg/kg/injection, schedule: Q01DX Z (ip), vehicle: carboxymethylcellulose (CMC)) was 95 % of control; the T/C (dose: 12.5 mg/kg/injection, schedule: Q01DX Z (ip), vehicle: carboxymethylcellulose (CMC)) was 88 % of control.

In the case of `C[C@@H]1C[C@@H]([C@H](O)CC2CC(=O)NC(=O)C2)C(=O)[C@@H](C)C1`, the T/C (dose: 0.93 mg/kg/injection, schedule: Q01DX Z (ip), vehicle: carboxymethylcellulose (CMC)) was 101 % of control; the T/C under setting [2] is 101 % of control; the T/C under setting [3] is 100 % of control; the T/C under setting [4] was 101 % of control; the T/C under setting [5] was 116 % of control; the T/C under setting [6] was 114 % of control. Besides, the T/C by setting is: under setting [7], 112 % of control; (dose: 60.0 mg/kg/injection, schedule: Q01DX Z (ip), vehicle: saline) 92 % of control.

Consider `Oc1cc(CN(CCCl)CCCl)c(O)cc1CN(CCCl)CCCl`, for which the T/C was 173 % of control (dose: 0.5 mg/kg/injection, schedule: Q01DX Z (ip), vehicle: saline); 153 % of control and 184 % of control (dose: 2.0 mg/kg/injection, schedule: Q01DX Z (ip), vehicle: carboxymethylcellulose (CMC)); 102 % of control and 108 % of control under setting [8].

For the molecule `CC(=O)N(C)C`, the T/C under setting [5] is 115 % of control; the T/C under setting [6] was 110 % of control; the T/C under setting [7] is 107 % of control; the T/C (dose: 62.5 mg/kg/injection, schedule: Q01DX Z (ip), vehicle: saline) is 110 % of control; the T/C (dose: 125.0 mg/kg/injection, schedule: Q01DX Z (ip), vehicle: saline) is 114 % of control; the T/C (dose: 250.0 mg/kg/injection, schedule: Q01DX Z (ip), vehicle: saline) was 109 % of control. For the same molecule, the T/C (dose: 500.0 mg/kg/injection, schedule: Q01DX Z (ip), vehicle: saline) was 120 % of control.

For the molecule `O=C(Nc1ccc(C2=NCCCN2)cc1)c1ccc(NC(=O)c2ccc(C3=NCCCN3)cc2)cc1`, the T/C by setting is: (dose: 0.75 mg/kg/injection, schedule: Q01DX Z (ip), vehicle: carboxymethylcellulose (CMC)) 113 % of control; (dose: 1.5 mg/kg/injection, schedule: Q01DX Z (ip), vehicle: carboxymethylcellulose (CMC)) 116 % of control; (dose: 3.0 mg/kg/injection, schedule: Q01DX Z (ip), vehicle: carboxymethylcellulose (CMC)) 272 % of control; under setting [8], 235 % of control; (dose: 6.0 mg/kg/injection, schedule: Q01DX Z (ip), vehicle: carboxymethylcellulose (CMC)) 185 % of control; (dose: 16.0 mg/kg/injection, schedule: Q01DX Z (ip), vehicle: carboxymethylcellulose (CMC)) 106 % of control.

Take `CCn1cnc2c(=S)nc[nH]c21`: the T/C was 91 % of control (dose: 50.0 mg/kg/injection, schedule: Q01DX Z (ip), vehicle: carboxymethylcellulose (CMC)); 94 % of control (dose: 75.0 mg/kg/injection, schedule: Q01DX Z (ip), vehicle: carboxymethylcellulose (CMC)); 92 % of control (dose: 100.0 mg/kg/injection, schedule: Q01DX Z (ip), vehicle: carboxymethylcellulose (CMC)); 87 % of control (dose: 150.0 mg/kg/injection, schedule: Q01DX Z (ip), vehicle: carboxymethylcellulose (CMC)).

Regarding `CC(=O)O[C@]1(C(C)=O)CC[C@H]2[C@@H]3C[C@H](C)C4=CC(=O)C=C[C@]4(C)[C@@]3(F)[C@@H](O)C[C@@]21C`, the T/C was 101 % of control (dose: 37.5 mg/kg/injection, schedule: Q01DX Z (sc), vehicle: steriod suspending solution) and 89 % of control under setting [1].
